test system: primary murine skeletal myocytes; assay: TAG accumulation in primary murine skeletal myocytes; type: cell-based; details: Mus musculus, read-out: Activity Score (IC50), triacylglyceride (TAG) accumulation

SMILES | IC50 [µM]
COc1ccc(-c2csc(C(=O)Nc3ccc(OCC(=O)N4CCOCC4)c(OC)c3)n2)cc1 [Cpd. 91, N-(3-methoxy-4-(2-morpholino-2-oxoethoxy)phenyl)-4-(4-methoxyphenyl)thiazole-2-carboxamide] | > 10

same assay, conditions: Mus musculus; primary murine skeletal myocytes; read-out: Activity Score (IC50), triacylglyceride (TAG) accumulation

SMILES | IC50 [µM]
COCCCNC(=O)COc1ccc(C(=O)Nc2nc(-c3ccc(OC)cc3)cs2)cc1OC [Cpd. 21, 3-methoxy-N-(4-(4-methoxyphenyl)thiazol-2-yl)-4-(2-((3-methoxypropyl)amino)-2-oxoethoxy)benzamide] | 1 to 10
COc1cc(C(=O)Nc2nc(-c3ccc4c(c3)OCO4)cs2)ccc1OCC(=O)N1CCOCC1 [Cpd. 39, N-(4-(benzo[d][1,3]dioxol-5-yl)thiazol-2-yl)-3-methoxy-4-(2-morpholino-2-oxoethoxy)benzamide] | 1 to 10
COc1cc(C(=O)Nc2nc(-c3ccc(N4CCCC4)cc3)cs2)ccc1OCC(=O)N1CCOCC1 [Cpd. 34, 3-methoxy-4-(2-morpholino-2-oxoethoxy)-N-(4-(4-(pyrrolidin-1-yl)phenyl)thiazol-2-yl)benzamide] | < 1
COc1ccc(-c2cnc(NC(=O)c3ccc(OCC(=O)N4CCOCC4)c(OC)c3)s2)cc1 [compound 80, 3-methoxy-N-(5-(4-methoxyphenyl)thiazol-2-yl)-4-(2-morpholino-2-oxoethoxy)benzamide] | > 10
COCCNC(=O)CNc1ccc(C(=O)Nc2nc(-c3ccc(OC)cc3Cl)cs2)cc1 [compound 73, N-(4-(2-chloro-4-methoxyphenyl)thiazol-2-yl)-4-((2-((2-methoxyethyl)amino)-2-oxoethyl)amino)benzamide] | < 1
O=C(Nc1nc(-c2cccc(Cl)c2)cs1)c1ccc(OCC(=O)N2CCOCC2)cc1 [Cpd. 52, N-(4-(3-chlorophenyl)thiazol-2-yl)-4-(2-morpholino-2-oxoethoxy)benzamide] | < 1
COc1cc(C(=O)Nc2nc(-c3ccc(Cl)cc3)cs2)ccc1OCC(=O)N1CCOCC1 [Cpd. 31, N-(4-(4-chlorophenyl)thiazol-2-yl)-3-methoxy-4-(2-morpholino-2-oxoethoxy)benzamide] | < 1
COc1ccc(-c2csc(NC(=O)C3CCC(OCC(=O)N4CCOCC4)CC3)n2)cc1 (centres unmarked) [Cpd. 97, N-(4-(4-methoxyphenyl)thiazol-2-yl)-4-(2-morpholino-2-oxoethoxy)cyclohexane-1-carboxamide] | > 10
COc1cc(C(=O)Nc2nc(-c3ccc(C#N)cc3)cs2)ccc1OCC(=O)N1CCOCC1 [Cpd. 32, N-(4-(4-cyanophenyl)thiazol-2-yl)-3-methoxy-4-(2-morpholino-2-oxoethoxy)benzamide] | < 1
O=C(Nc1nc(-c2ccccc2Cl)cs1)c1ccc(OCC(=O)N2CCOCC2)cc1 [Cpd. 48, N-(4-(2-chlorophenyl)thiazol-2-yl)-4-(2-morpholino-2-oxoethoxy)benzamide] | < 1
COc1ccc(-c2csc(NC(=O)c3ccc(OCC(=O)N4CCOCC4)c(OC)c3)n2)cc1OC [Cpd. 38, N-(4-(3,4-dimethoxyphenyl)thiazol-2-yl)-3-methoxy-4-(2-morpholino-2-oxoethoxy)benzamide] | 1 to 10
COc1ccc(-c2csc(NC(=O)c3ccc(OCC(=O)N4CCOCC4)cc3)n2)cc1 [Cpd. 41, N-(4-(4-methoxyphenyl)thiazol-2-yl)-4-(2-morpholino-2-oxoethoxy)benzamide] | < 1
CC(C)c1ccc(-c2csc(NC(=O)c3ccc(OCC(=O)N4CCOCC4)cc3)n2)cc1 [Cpd. 45, N-(4-(4-isopropylphenyl)thiazol-2-yl)-4-(2-morpholino-2-oxoethoxy)benzamide] | < 1
COc1ccccc1-c1csc(NC(=O)c2ccc(OCC(=O)N3CCOCC3)cc2)n1 [Cpd. 50, N-(4-(2-methoxyphenyl)thiazol-2-yl)-4-(2-morpholino-2-oxoethoxy)benzamide] | < 1
COc1ccc(-c2csc(NC(=O)c3ccc(NCC(=O)N(C)C)cc3)n2)cc1 [compound 68, 4-((2-(dimethylamino)-2-oxoethyl)amino)-N-(4-(4-methoxyphenyl)thiazol-2-yl)benzamide] | < 1
COc1ccc(-c2csc(NC(=O)c3ccc(OCC(=O)NCc4ccccc4)c(OC)c3)n2)cc1 [Cpd. 23, 4-(2-(benzylamino)-2-oxoethoxy)-3-methoxy-N-(4-(4-methoxyphenyl)thiazol-2-yl)benzamide] | 1 to 10
COc1ccc(-c2csc(NC(=O)c3ccc(OCC(=O)N(C)C)c(OC)c3)n2)cc1 [Cpd. 19, 4-(2-(dimethylamino)-2-oxoethoxy)-3-methoxy-N-(4-(4-methoxyphenyl)thiazol-2-yl)benzamide] | 1 to 10
COc1ccc(Cc2cnc(NC(=O)c3ccc(OCC(=O)N4CCOCC4)c(OC)c3)s2)cc1 [Cpd. 98, 3-methoxy-N-(5-(4-methoxybenzyl)thiazol-2-yl)-4-(2-morpholino-2-oxoethoxy)benzamide] | 1 to 10
COc1cc(C(=O)Nc2nc(-c3ccc(C)cc3)cs2)ccc1O [Cpd. 3, 4-hydroxy-3-methoxy-N-(4-(p-tolyl)thiazol-2-yl)benzamide] | > 10
O=C(Nc1nc(-c2ccc(F)cc2)cs1)c1ccc(OCC(=O)N2CCOCC2)cc1 [Cpd. 46, N-(4-(4-fluorophenyl)thiazol-2-yl)-4-(2-morpholino-2-oxoethoxy)benzamide] | < 1

SMILES | IC50 [µM]
COc1cc(C(=O)Nc2nc(-c3ccccc3)cs2)ccc1OCC(=O)N1CCOCC1 [Cpd. 25, 3-methoxy-4-(2-morpholino-2-oxoethoxy)-N-(4-phenylthiazol-2-yl)benzamide] | < 1
COc1ccc(-c2csc(NC(=O)c3ccc(OCC(=O)N4CCSCC4)c(OC)c3)n2)cc1 [Cpd. 11, 3-methoxy-N-(4-(4-methoxyphenyl)thiazol-2-yl)-4-(2-oxo-2-thiomorpholinoethoxy)benzamide] | < 1
COc1cc(C(=O)Nc2nc(-c3ccccc3)cs2)ccc1O [Cpd. 2, 4-hydroxy-3-methoxy-N-(4-phenylthiazol-2-yl)benzamide] | > 10
O=C(Nc1nc2ccccc2s1)c1ccc(OCC(=O)N2CCOCC2)cc1 [Cpd. 87, N-(benzo[d]thiazol-2-yl)-4-(2-morpholino-2-oxoethoxy)benzamide] | > 10
COC(=O)CNC(=O)COc1ccc(C(=O)Nc2nc(-c3ccc(OC)cc3)cs2)cc1OC [Cpd. 16, Methyl (2-(2-methoxy-4-((4-(4-methoxyphenyl)thiazol-2-yl)carbamoyl)phenoxy)acetyl)glycinate] | > 10
COc1ccc(-c2csc(NC(=O)c3ccc(NCC(=O)N4CCOCC4)c(OC)c3)n2)cc1 [Cpd. 75, 3-methoxy-N-(4-(4-methoxyphenyl)thiazol-2-yl)-4-((2-morpholino-2-oxoethyl)amino)benzamide] | < 1
COc1cc(C(=O)Nc2nc(-c3ccc(Cl)cc3)cs2)ccc1O [Cpd. 4, N-(4-(4-chlorophenyl)thiazol-2-yl)-4-hydroxy-3-methoxybenzamide] | 1 to 10
CNC(=O)CNc1ccc(C(=O)Nc2nc(-c3ccc(OC)cc3)cs2)cc1 [compound 67, N-(4-(4-methoxyphenyl)thiazol-2-yl)-4-((2-(methylamino)-2-oxoethyl)amino)benzamide] | < 1
O=C(Nc1nc(-c2ccccc2)cs1)c1cccc(OCC(=O)N2CCOCC2)c1 [Cpd. 95, 3-(2-morpholino-2-oxoethoxy)-N-(4-phenylthiazol-2-yl)benzamide] | 1 to 10
COc1ccc(-c2csc(NC(=O)c3ccc(N)c(OC)c3)n2)cc1 [compound 77, 4-amino-3-methoxy-N-(4-(4-methoxyphenyl)thiazol-2-yl)benzamide] | 1 to 10
COc1cc(C(=O)Nc2nc(-c3ccc(Cl)c(Cl)c3)cs2)ccc1OCC(=O)N1CCOCC1 [Cpd. 37, N-(4-(3,4-dichlorophenyl)thiazol-2-yl)-3-methoxy-4-(2-morpholino-2-oxoethoxy)benzamide] | < 1
O=C(Nc1nc(-c2ccccc2F)cs1)c1ccc(OCC(=O)N2CCOCC2)cc1 [Cpd. 49, N-(4-(2-fluorophenyl)thiazol-2-yl)-4-(2-morpholino-2-oxoethoxy)benzamide] | < 1
COc1cccc(-c2csc(NC(=O)c3ccc(OCC(=O)N4CCOCC4)c(OC)c3)n2)c1 [Cpd. 35, 3-methoxy-N-(4-(3-methoxyphenyl)thiazol-2-yl)-4-(2-morpholino-2-oxoethoxy)benzamide] | 1 to 10
COc1ccc2nc(NC(=O)c3ccc(OCC(=O)N4CCOCC4)cc3)sc2c1 [Cpd. 88, N-(6-methoxybenzo[d]thiazol-2-yl)-4-(2-morpholino-2-oxoethoxy)benzamide] | 1 to 10
COc1ccc(-c2csc(NC(=O)c3ccc(OCC(=O)N4CCOCC4)c(OC)c3)n2)c(OC)c1 [Cpd. 36, N-(4-(2,4-dimethoxyphenyl)thiazol-2-yl)-3-methoxy-4-(2-morpholino-2-oxoethoxy)benzamide] | < 1
COCCNC(=O)CNc1ccc(C(=O)Nc2nc(-c3ccc(OC)cc3)cs2)cc1 [compound 69, 4-((2-((2-methoxyethyl)amino)-2-oxoethyl)amino)-N-(4-(4-methoxyphenyl)thiazol-2-yl)benzamide] | > 10
COCCOc1ccc(-c2csc(NC(=O)c3ccc(OCC(=O)N4CCOCC4)cc3)n2)cc1 [Cpd. 43, N-(4-(4-(2-methoxyethoxy)phenyl)thiazol-2-yl)-4-(2-morpholino-2-oxoethoxy)benzamide] | < 1
COc1cc(C(=O)Nc2nc(-c3ccc(OC(F)(F)F)cc3)cs2)ccc1OCC(=O)N1CCOCC1 [Cpd. 26, 3-methoxy-4-(2-morpholino-2-oxoethoxy)-N-(4-(4-(trifluoromethoxy)phenyl)thiazol-2-yl)benzamide] | < 1
CCNC(=O)COc1ccc(C(=O)Nc2nc(-c3ccc(OC)cc3Cl)cs2)cc1 [Cpd. 59, N-(4-(2-chloro-4-methoxyphenyl)thiazol-2-yl)-4-(2-(ethylamino)-2-oxoethoxy)benzamide] | < 1
COc1ccc(-c2csc(NC(=O)c3ccc(OCC(N)=O)c(OC)c3)n2)cc1 [Cpd. 17, 4-(2-amino-2-oxoethoxy)-3-methoxy-N-(4-(4-methoxyphenyl)thiazol-2-yl)benzamide] | 1 to 10

From patent US11028061B2, “Modulators of myocyte lipid accumulation and insulin resistance and methods of use thereof” (Sanford Burnham Prebys Medical Discovery Institute, priority 2015, dated 2021)
